# Columns and labels:
# [1] = Liquid formulations of water insoluble rapamycins: concentration (HPLC) and visual observation; assay type: physicochemical
# Source text: In accordance with exemplary embodiments of the present invention, a series of liquid formulations were developed for the local or regional delivery of water insoluble compounds such as sirolimus and its analogs, including CCI-779, ABT-578 and everolimus, through weeping balloons and catheter injection needles. […] These liquid formulations increase the apparent solubility of the pharmacologically active but water insoluble compounds by two to four orders. of magnitude as compared to the solubility limits of the compounds in water. These liquid formulations rely on the use of a very small amount of organic solvents such as Ethanol (typically less than two percent) and a larger amount of safe-amphiphilic (of or relating to a molecule having-a polar; water soluble group attached to a non-polar, water insoluble […]) excipients such as polyethylene glycol (PEG 200, PEG 400) and vitamin E TPGS to enhance the solubility of the compounds. These liquid formulations of highly. water insoluble compounds are stable and readily flowable at room temperature. Certain excipients, such as Vitamin E TPGS and BHT may be utilized to enhance the storage stability of sirolimus compounds through their anti-oxidation properties. […]
# [2] = In vivo release kinetics from stent coatings in porcine pharmacokinetics studies
# Source text: The topcoat is two hundred micro grams.
# The basecoat is applied to Bx Velocity® stents and implanted into Yorkshire pigs.
# Another critical parameter for the performance of the thrombus resistance of a device coated with cilostazol is the duration of the drug release from the coating. This is of particular significance in the two weeks after device implantation. […] The purpose of the porcine PK study is to assess the local pharmacokinetics of a drug eluting stent at a given implantation time. Normally three stents are implanted in three different coronary arteries in a pig for a given time point and then retrieved for total drug recovery analysis. The stents are retrieved at predetermined time points; namely, 1, 3 and 8 days. The stents are extracted and the total amount of drug remaining on the stents is determined by analysis utilizing HPLC (high performance liquid chromatography) for total drug amount. The difference between the original amount of drug on the stent and the amount of drug retrieved at a given time represents the amount of drug released in that period. The continuous release of drug into surrounding arterial tissue is what prevents the neointimal growth and restenosis in the coronary artery. A normal plot represents the percentage of total drug released (%, y-axis) vs. time of implantation (day, x-axis). […] In this exemplary configuration, the stent 8600 is coated with two layers. The first layer 8602 comprises a combination of sirolimus, cilostazol and a copolymer matrix of EVA/BMA. The second layer or diffusion overcoat 8604 comprises only BMA. More specifically, in this embodiment, the first layer 8602 comprises a combination of sirolimus and cilastazol that is forty-five (45) percent by weight of the total weight of the first layer 8602 and an EVA/BMA copolymer matrix that is fifty-five (55) percent by weight of the total weight of the first layer 8602. The diffusion overcoat comprises one hundred (100 μg) micrograms of BMA.
# Pigs are an established animal species for intravascular stent studies and accepted for such studies by the appropriate regulatory agencies. This in vivo study utilized male pigs of the species Sus Scrofa and strain Yoorkshire pigs. S.M.A.R.T.™ stents, available from Cordis Corporation, were placed into the iliac and femoral arteries, PALMAZ® GENESIS™ stents, available from Cordis Corporation, were placed in the renal arteries and CYPHER™ stents, available from Cordis Corporation, were placed in the coronary arteries.
# [3] = system: elastase-induced abdominal aortic aneurysms; assay: Elastase-induced rat model of abdominal aortic aneurysm; assay type: in vivo; conditions: 15 mg/kg/day; for inhibition of aortic dilatation induced by elastase perfusion: vs saline, FIG. 77
# Source text: The following example is provided to assist in a further understanding of the present invention. The particular materials and conditions employed are intended to be further illustrative of the invention and are not limiting upon the reasonable scope thereof Male Wistar rats (350-400 g) were subjected to perfusion of an isolated segment of the infrarenal abdominal aorta with 50 units of porcine pancreatic elastase, using the method described by Anidjar et al. (Anidjar, S. Salzmann, J L, Generic, D, Lagneau, P, Camilleri, J P, and Michel, J B, “Elastase induced experimental aneurysms in rats,” Circulation 82:973-981 (1990); Halpern et al. (Halpern, V J. Liao, Nackman, G B, Gandhi, R H, Irizarry, E, Scholes, J V, Ramey, W G, and Tilson, M D, “The elastase infusion model of experimental aortic aneurysms: Synchrony of induction of endogenous protinases with matrix destruction and inflammatory cell response, “J. Vasc. Surg. […] Surg 23:336-346(1996)). This method is an accepted model for experimental induction of abdominal aortic aneurysms. The animals (n=6 rats in each group) were then treated with twice-daily subcutaneous injections of either saline vehicle (control), or various doses of doxycycline (Dox) or one of four different, non-antibiotic, chemically-modified tetracyclines (CMTs; CollaGenex, Inc., Newtown, Pa.). Aortic diameter (AD) was measured with microcalipers before and after elastase perfusion, and just prior to sacrifice on day 7. Abdominal aortic aneurysms were defined as an increase in final AD to at least twice that measured before perfusion (≥100% increase). Aortic tissues from two animals in each group were perfusion-fixed with 10% neutral buffered formalin, embedded in paraffin, and stained with Verhoeff-van Geisen (VVG) for elastin. Tissues from the remaining animals were extracted, normalized to total protein, and analyzed by gelatin substrate zymography as described (Thompson et al. 1995; Halpern et al. 1994; Petrinec 1996).
# [4] = system: human coronary artery smooth muscle cell; assay: In vitro cell culture study of human coronary artery smooth muscle cell proliferation (trichostatin A); assay type: cell-based
# Source text: FIG. 51 is a graph of the inhibition of coronary artery smooth muscle cells by trichostatin A in a cell culture study.
# [5] = system: tumor cell lines; conditions: cited from earlier work
# [6] = system: human coronary artery smooth muscle cells; assay: Anti-proliferative activity in non-synchronized cultured human coronary artery smooth muscle cells stimulated with two percent fetal bovine serum; assay type: cell-based; conditions: for effect of addition on the anti-proliferative rapamycin dose response curve: mycophenolic acid zero to one thousand nanomolar (FIG. 52), cladribine zero to nine hundred nanomolar (FIG. 57)
# Source text: The multiple curves represent various concentrations of mycophenolic acid ranging from zero to one thousand nanomolar concentrations.
# FIG. 58 illustrates, in graphical format, the anti-proliferative activity of cladribine in non-synchronized cultured human coronary artery smooth muscle cells stimulated with two percent fetal bovine serum.
# The multiple curves represent various concentrations of cladribine ranging from zero to nine hundred nanomolar concentrations.
# [7] = system: human coronary artery smooth muscle cells; assay: Anti-proliferative activity in synchronized cultured human coronary artery smooth muscle cells stimulated with two percent fetal bovine serum; assay type: cell-based; conditions: topotecan to 300 nanomolar (FIG. 64), etoposide to eight hundred nanomolar (FIG. 65), Panzem to 100 micromolar (FIG. 68)
# Source text: (§1) The multiple curves represent various concentrations of topotecan ranging from zero to three hundred nanomolar concentrations.
# (§2) The multiple curves represent various concentrations of etoposide ranging from zero to eight hundred nanomolar concentrations.
# The multiple curves represent various concentrations of Panzem® ranging from zero to 100 micromolar concentrations.
# [8] = Cell viability assay (cytotoxicity); assay type: cell-based
# Source text: as §1, §2
compound,measurement,setting,value
CO[C@H]1C[C@@H]2CC[C@@H](C)[C@@](O)(O2)C(=O)C(=O)N2CCCC[C@H]2C(=O)O[C@H]([C@H](C)C[C@@H]2CC[C@@H](O)[C@H](OC)C2)CC(=O)[C@H](C)/C=C(\C)[C@@H](O)[C@@H](OC)C(=O)[C@H](C)C[C@H](C)/C=C/C=C/C=C/1C [rapamycin],concentration relative to the solubility of sirolimus in water,[1]; 4 mg/ml PEG 200 formulation,four hundred to about one thousand
same,"in vivo release rate, comparison","[2]; PVDF basecoat with rapamycin and mycophenolic acid, PVDF topcoat, FIG. 56",slower release rate than that of mycophenolic acid
same,peak elution release at three days,"[2]; PVDF/HFP (60/40) and rapamycin basecoat with 167 microgram PVDF/HFP topcoat, curve 4902",greater than seventy-five
same,peak elution release at three days,"[2]; PVDF/HFP (60/40) and rapamycin basecoat with 490 microgram BMA topcoat, curve 4912",less than fifty
same,drug remaining in the drug coating,"[2]; after eight (8) days of implantation, single layer sirolimus/cilostazol EVA/BMA coating with 100 μg BMA overcoat (FIG. 86), FIG. 84",~80%
4-dedimethylamino-12a-deoxytetracycline [CMT-7],relative efficacy in suppressing aneurysmal dilatation compared to Dox at the same dose,[3],92%
same,inhibition of aortic dilatation induced by elastase perfusion,[3],statistically significant
CC(/C=C/C(=O)NO)=C\[C@@H](C)C(=O)c1ccc(N(C)C)cc1 [trichostatin A],IC50,"[4]; human coronary artery smooth muscle cell proliferation, read-out: anti-proliferative IC50",~6 nM
same,inhibition of human coronary artery smooth muscle cell proliferation,[4]; in vitro cell culture,completely inhibit
same,anti-proliferative IC50,[5],low nM range
"CC1(O)c2c(Cl)ccc(O)c2C(=O)C2=C(O)C3(O)C(=O)C(C(N)=O)=C(O)CC3CC21 (centres unmarked) [CMT-4, 4-dedimethylamino-7-chlorotetra-cycline]",relative efficacy in suppressing aneurysmal dilatation compared to Dox at the same dose,[3],75%
same,inhibition of aortic dilatation induced by elastase perfusion,[3],did not reach statistical significance
"C[C@H]1c2cccc(O)c2C(O)=C2C(=O)[C@]3(O)C(O)=C(C(N)=O)C(=O)C[C@@H]3[C@@H](O)[C@@H]21 [CMT-8, 6-α-deoxy-5-hydroxy-4-dedimethylaminotetracycline]",relative efficacy in suppressing aneurysmal dilatation compared to Dox at the same dose,[3],105%
same,inhibition of aortic dilatation induced by elastase perfusion,[3],statistically significant
CO[C@H]1C[C@@H]2CC[C@@H](C)[C@@](O)(O2)C(=O)C(=O)N2CCCC[C@H]2C(=O)O[C@H]([C@H](C)C[C@@H]2CC[C@@H](OC(=O)C(C)(CO)CO)[C@H](OC)C2)CC(=O)[C@H](C)/C=C(\C)[C@@H](O)[C@@H](OC)C(=O)[C@H](C)C[C@H](C)/C=C/C=C/C=C/1C [CCl-779],concentration in the final solution (HPLC assay),"[1]; ethanol (less than two percent), Vitamin E TPGS and water",15000 µg/mL
COc1c(C)c2c(c(O)c1C/C=C(\C)CCC(=O)O)C(=O)OC2 [mycophenolic acid],effect of addition on the anti-proliferative rapamycin dose response curve,[6],potentiates the anti-proliferative activity of rapamycin
same,"in vivo release from the basecoat, comparison","[2]; EVA/BMA basecoat with rapamycin and mycophenolic acid, BMA topcoat, FIGS. 53, 54",elutes more completely over a shorter duration than the rapamycin
"NC(=O)C1=C(O)C[C@@H]2C[C@@H]3Cc4cccc(O)c4C(=O)C3=C(O)[C@]2(O)C1=O [CMT-3, 6-demethyl-6-deoxy-4-dedimethylaminotetracycline]",relative efficacy in suppressing aneurysmal dilatation compared to Dox at the same dose,[3],92%
same,inhibition of aortic dilatation induced by elastase perfusion,[3],statistically significant
COc1cc([C@@H]2c3cc4c(cc3[C@@H](O[C@@H]3O[C@@H]5CO[C@@H](C)O[C@H]5[C@H](O)[C@H]3O)[C@H]3COC(=O)[C@H]23)OCO4)cc(OC)c1O [etoposide],effect of addition on the anti-proliferative rapamycin dose response curve,[7],increases the percent inhibition of rapamycin alone
same,cytotoxicity in cell viability assay,[8]; at concentrations up to ten micromolar,non-cytotoxic
CC[C@@]1(O)C(=O)OCc2c1cc1n(c2=O)Cc2cc3c(CN(C)C)c(O)ccc3nc2-1 [topotecan],effect of addition on the anti-proliferative rapamycin dose response curve,[7],potentiate the anti-proliferative activity of rapamycin
same,cytotoxicity in cell viability assay,[8]; at concentrations up to one micromolar,non-cytotoxic
"Nc1nc(Cl)nc2c1ncn2[C@H]1C[C@H](O)[C@@H](CO)O1 [Cladribine, 2-chlorodeoxyadenosine]",inhibition of human coronary artery smooth muscle cell proliferation,[6]; FIG. 58,completely inhibits
same,effect of addition on the anti-proliferative rapamycin dose response curve,[6],potentiate the anti-proliferative activity of rapamycin
same,"in vivo elution from the polymeric stent coating, comparison","[2]; EVA/BMA basecoat with rapamycin and cladribine, BMA topcoat, FIGS. 62, 63",elutes more rapidly than rapamycin

# Reference: US20070173787A1, “Thin-film nitinol based drug eluting stent” (priority 2005, published 2007)
